Among the data in patent US9062051B2, “Compounds and pharmaceutical compositions thereof for the treatment of proliferative disorders” (GALAPAGOS NV, priority 2014, dated 2015) are AUC and IC50 values, retold here.

Data set [1] can be described thus: Pharmacokinetics in rats (exposure, AUC). The data set is classed as in vivo, male Sprague Dawley rats. The conditions noted are these: male, Sprague Dawley, rat, plasma, po. As for the experimental part: This study is performed with 6 naïve male Sprague Dawley rats (180-200 g, 6-8 weeks old). Rats are obtained from Janvier, Le Genest St Isle, France.
A controlled environment is maintained in the room with optimal conditions of approximately 15 air changes per hour, a temperature of 22±2 C, a relative humidity of 30-70% and a 12 hour light/dark cycle
Pelleted diet for rodents (UAR A04C-10) is used and is provided ad libitum. Before p.o. dosing, the animals are deprived of food for at least 12 hours before compound administration and 4 hours after administration. All animals had free access to tap water.
Two days before the dosing day, the implantation of a catheter in the jugular vein is done under gaseous anaesthesia with isoflurane.
Rats are dosed intravenously with test compound via a bolus in the tail vein with a dose level of 1 mg/kg. […]
The i.v. bolus and the oral administration are given a dose volume of 5 mL/kg.
From all animals approximately 200 μL blood samples are collected via the catheter and placed into tubes containing Li-heparin as anticoagulant. Blood samples are collected at the various time points (i.v.: 0.05, 0.25, 0.5, 1, 3, 5, 8 and 24 hours after dosing; p.o.: 0.25, 0.5, 1, 3, 5, 8 and 24 hours after dosing).
Blood is kept on ice. Within 1 hour after sampling, blood is centrifuged at 5,000 rpm for 10 min at 4° C. Immediately after centrifugation, the resulting plasma samples are collected into polypropylene tubes and are kept frozen at −20° C. pending bioanalysis.
Plasma samples are assayed by LC-MS/MS. Plasma proteins are precipitated with an excess of methanol containing the internal standard and the corresponding supernatant is injected on a C18 column. Analytes are eluted out the HPLC system by increasing the percentage of the organic mobile phase. An API4000 mass spectrometer (AB Sciex™) is used for the detection and quantification.
Pharmacokinetic parameters are calculated by non-compartmental analysis using WinNonlin® software (Pharsight, version 5.2).

The target in a further data set is T1, Recombinant EphB2 (Homo sapiens, UniProt P29323).
T1 construct: purchased Carna 08-129
T1 sequence (P29323 19-986 isoform P29323-2 limits assumed): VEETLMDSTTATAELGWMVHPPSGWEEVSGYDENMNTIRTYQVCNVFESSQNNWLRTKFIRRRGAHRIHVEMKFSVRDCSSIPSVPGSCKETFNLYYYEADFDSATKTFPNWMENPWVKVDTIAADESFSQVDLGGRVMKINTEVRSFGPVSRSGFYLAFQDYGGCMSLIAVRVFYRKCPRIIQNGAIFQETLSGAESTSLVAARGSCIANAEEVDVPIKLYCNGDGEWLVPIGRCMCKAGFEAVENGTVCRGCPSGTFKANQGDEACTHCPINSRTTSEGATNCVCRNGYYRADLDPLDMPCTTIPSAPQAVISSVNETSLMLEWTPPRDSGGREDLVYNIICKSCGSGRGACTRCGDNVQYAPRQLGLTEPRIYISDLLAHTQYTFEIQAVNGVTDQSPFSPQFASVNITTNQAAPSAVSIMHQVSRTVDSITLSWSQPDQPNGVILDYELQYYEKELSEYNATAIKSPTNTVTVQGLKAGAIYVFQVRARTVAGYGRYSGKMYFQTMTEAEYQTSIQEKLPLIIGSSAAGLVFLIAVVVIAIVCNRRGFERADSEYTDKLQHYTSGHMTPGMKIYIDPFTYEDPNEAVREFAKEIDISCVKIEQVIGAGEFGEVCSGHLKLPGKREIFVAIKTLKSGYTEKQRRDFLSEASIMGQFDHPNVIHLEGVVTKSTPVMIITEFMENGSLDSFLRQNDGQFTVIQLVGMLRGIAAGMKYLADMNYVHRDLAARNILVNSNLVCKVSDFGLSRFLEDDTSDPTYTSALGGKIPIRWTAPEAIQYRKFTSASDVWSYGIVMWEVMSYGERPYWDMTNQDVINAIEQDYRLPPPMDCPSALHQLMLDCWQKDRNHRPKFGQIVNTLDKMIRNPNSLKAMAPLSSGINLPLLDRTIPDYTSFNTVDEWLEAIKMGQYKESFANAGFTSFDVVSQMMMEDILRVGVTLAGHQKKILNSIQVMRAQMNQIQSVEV
Put plainly: EphB2 assay (33P incorporation into poly GT, filter plate). In kind it is biochemical. The conditions noted are these: read-out: EphB2 potency IC50.

The next data set addresses T2, EphA2 (UniProt Ref: P29317) (Homo sapiens, UniProt P29317).
T2 construct: purchased Reaction Biology
Put plainly: EphA2 assay (Reaction Biology HotSpot radioactive kinase assay). The data set is classed as biochemical. The note with it: ATP 10 μM; read-out: EphA2 potency IC50. The essentials: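 Radiometric HotSpot assay measuring ^33P incorporation from [^33P]-γ-ATP into poly[Glu:Tyr] (4:1) (0.2 mg/mL) with 10 μM ATP. IC50 from serial 1/3 dilutions starting at 10 or 3 μM.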

Structures are written as SMILES.

T2 sequence (P29317 24-976): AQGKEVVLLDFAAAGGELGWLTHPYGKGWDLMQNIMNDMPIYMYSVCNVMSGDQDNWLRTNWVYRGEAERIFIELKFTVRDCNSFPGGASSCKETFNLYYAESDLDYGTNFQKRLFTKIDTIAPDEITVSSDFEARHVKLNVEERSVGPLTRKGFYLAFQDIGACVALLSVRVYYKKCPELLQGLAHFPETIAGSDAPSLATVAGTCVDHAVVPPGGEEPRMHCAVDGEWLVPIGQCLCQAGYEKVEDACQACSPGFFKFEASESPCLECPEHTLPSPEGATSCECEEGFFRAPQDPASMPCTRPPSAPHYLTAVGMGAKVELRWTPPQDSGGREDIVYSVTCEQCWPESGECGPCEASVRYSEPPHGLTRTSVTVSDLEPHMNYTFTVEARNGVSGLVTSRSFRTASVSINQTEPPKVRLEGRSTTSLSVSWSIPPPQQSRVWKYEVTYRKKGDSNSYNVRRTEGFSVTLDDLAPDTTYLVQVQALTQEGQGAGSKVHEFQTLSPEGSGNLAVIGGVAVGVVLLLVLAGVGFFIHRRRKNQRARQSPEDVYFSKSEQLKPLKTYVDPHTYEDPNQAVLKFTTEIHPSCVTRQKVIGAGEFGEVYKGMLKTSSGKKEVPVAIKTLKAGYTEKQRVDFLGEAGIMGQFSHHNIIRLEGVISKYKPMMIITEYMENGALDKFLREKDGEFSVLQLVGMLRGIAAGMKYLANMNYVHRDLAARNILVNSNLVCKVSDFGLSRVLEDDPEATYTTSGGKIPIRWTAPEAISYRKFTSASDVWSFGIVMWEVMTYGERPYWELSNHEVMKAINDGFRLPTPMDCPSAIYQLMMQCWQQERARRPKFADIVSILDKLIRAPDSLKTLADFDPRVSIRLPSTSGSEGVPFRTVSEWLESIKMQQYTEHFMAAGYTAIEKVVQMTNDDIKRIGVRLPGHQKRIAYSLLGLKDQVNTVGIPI

In general, AUC refers to concentration integrated over time. Higher therefore signals high exposure. What is called IC50 is the concentration at which inhibition is half-maximal. Turning to `Cc1ccc(NC(=O)c2cccc(C(F)(F)F)c2)cc1-c1ccc2c(C(C)O)n[nH]c2n1` (centres unmarked) [Compound 35, N-{3-[3-(1-Hydroxy-ethyl)-1H-pyrazolo[3,4-b]pyridin-6-yl]-4-methyl-phenyl}-3-trifluoromethyl-benzamide], in data set [1] (5 mg/kg), the AUC is 3570 ng·h/mL. Moreover, the IC50 at Recombinant EphB2 was 50 to 100 nM; on EphA2 it was 25 to 50 nM.
In data set [1] (5 mg/kg), `CCc1n[nH]c2nc(-c3cc(NC(=O)c4cc(C)cc(C)c4)cnc3C)ccc12` [Compound 50, N-[5-(3-Ethyl-1H-pyrazolo[3,4-b]pyridin-6-yl)-6-methyl-pyridin-3-yl]-3,5-dimethyl-benzamide] displayed an AUC of 1270 ng·h/mL. For the same compound, the IC50 was > 100 nM at Recombinant EphB2 and 50 to 100 nM at EphA2.
As to `Cc1ccc(NC(=O)c2cccc(C(F)(F)F)c2)cc1-c1ccc2c([C@H](C)O)n[nH]c2n1` [Compound 55, N-{3-[3-((S)-1-Hydroxy-ethyl)-1H-pyrazolo[3,4-b]pyridin-6-yl]-4-methyl-phenyl}-3-trifluoromethyl-benzamide], the AUC in data set [1] (3 mg/kg) stood at 1060 ng·h/mL; in data set [1] (5 mg/kg) it was 965 ng·h/mL; in data set [1] (30 mg/kg), 13600 ng·h/mL. Besides, the 50% inhibitory concentration (IC50) on Recombinant EphB2 and on EphA2 was 0.01 to 25 nM throughout.
